# PMC6405874, “Development of a novel short 12-meric papiliocin-derived peptide that is effective against Gram-negative sepsis” (Scientific Reports, 2019)
# No end group written: not given here.
# Assays:
# [1] = test system: human red blood cells (hRBCs); test: Hemolysis of human red blood cells
# Method: (§1) The therapeutic index (TI) was calculated (Table 2) using HC10, the peptide concentration required to induce 10% hemolysis.
# The toxicity of peptides to human red blood cells (hRBCs) was determined by measuring the peptide-induced release of haem, and percent hemolysis was calculated as described previously. The peptide-induced cytotoxicity of mouse RAW 264.7 macrophages, human keratinocyte HaCaT cells, and HEK-293 cells were determined by 3-(4,5-dimethylthiazol-2-yl)-2,5-diphenyltetrazolium bromide (MTT) assays as previously described.
# [2] = test system: S. epidermidis (KCTC 1917); conditions: 1% peptone, 2 × 10^6 CFU/mL, 16 h, 37 °C
# Method: (§2) The antimicrobial activities of Pap12 peptides were tested against four standard Gram-negative bacteria (E. coli, Pseudomonas aeruginosa, Acinetobacter baumannii, and Salmonella typhimurium), three standard Gram-positive bacteria (Staphylococcus aureus, Bacillus subtilis, and Staphylococcus epidermidis), and five MDR bacteria (MDREC CCARM 1229, MDRPA CCARM 2002, MDRAB CCARM 12035, MDRST CCARM 8007, and MRSA CCARM 3126) using the microbroth dilution method. The relative antibacterial activities were compared based on geometric means of MICs (GM).
# (§3) Escherichia coli (KCTC 1682), Pseudomonas aeruginosa (KCTC 2004), Acinetobacter baumannii (KCTC 2508), Salmonella typhimurium (KCTC 1926), Bacillus subtilis (KCTC 3068), Staphylococcus aureus (KCTC 1621), and Staphylococcus epidermidis (KCTC 1917) were purchased from the Korean Collection for Type Cultures, Korea Research Institute of Bioscience & Biotechnology (Taejon, Korea). Clinical isolates of MDR E. coli (MDREC; CCARM 1229), P. aeruginosa (MDRPA; CCARM 2002), A. baumannii (MDRAB; CCARM 12035), S. typhimurium (MDRST; CCARM 8007), and S. aureus (MDRSA; CCARM 3126) were supplied by the Culture Collection of Antibiotic-Resistant Microbe (CCARM) at Seoul Women’s University in Korea. The E. coli K1 strain RS218 (O18:K1:H7) was kindly provided by Dr. Jang-Won Yoon of Kangwon National University (Gangwon-do, Korea).
# (§4) Peptides were treated with 2 × 10^6 CFU/mL bacterial suspensions in 1% peptone media for 16 h at 37 °C.
# [3] = test system: MRSA 3126 (CCARM 3126); conditions: 1% peptone, 2 × 10^6 CFU/mL, 16 h, 37 °C
# Method: as §2, §3, §4
# [4] = test system: MDRAB 12035 (MDR A. baumannii CCARM 12035); conditions: 1% peptone, 2 × 10^6 CFU/mL, 16 h, 37 °C
# Method: as §2, §3, §4
# [5] = test system: MDRPA 2002 (MDR P. aeruginosa CCARM 2002); conditions: 1% peptone, 2 × 10^6 CFU/mL, 16 h, 37 °C
# Method: as §2, §3, §4
# [6] = test system: A. baumannii (KCTC 2508); conditions: 1% peptone, 2 × 10^6 CFU/mL, 16 h, 37 °C
# Method: as §2, §3, §4
# [7] = test system: MDRST 8007 (MDR S. typhimurium CCARM 8007); conditions: 1% peptone, 2 × 10^6 CFU/mL, 16 h, 37 °C
# Method: as §2, §3, §4
# [8] = test system: MDREC 1229 (MDR E. coli CCARM 1229); conditions: 1% peptone, 2 × 10^6 CFU/mL, 16 h, 37 °C
# Method: as §2, §3, §4
# [9] = test system: mouse macrophage RAW 264.7 cells; test: MTT cytotoxicity; type: cell-based; conditions: MTT, RAW 264.7, HaCaT and HEK-293 cells (Fig. 2B-D)
# Description: The toxicities of peptides against mammalian cells were checked by measuring the survival rate of mouse macrophage RAW 264.7 cells, human keratinocyte HaCaT cells, and HEK-293 human embryonic kidney epithelial (HEK-293) cells after treatment with different concentrations of peptides (Fig. 2B–D). […] Since melittin has higher hydrophobicity and a […] amphiphatic moment (µH) than those of Pap12 peptides, as listed in Table 1, its toxicity is much higher than those of Pap12 peptides.
# [10] = test system: Gram-positive bacteria; conditions: four Gram-positive strains of Table 2
# Method: as §2, §1, §4
# [11] = test system: Gram-negative bacteria; conditions: eight Gram-negative strains of Table 2
# Method: as §2, §1, §4
# [12] = test system: P. aeruginosa (KCTC 2004); conditions: 1% peptone, 2 × 10^6 CFU/mL, 16 h, 37 °C
# Method: as §2, §3, §4
# [13] = test system: S. typhimurium (KCTC 1926); conditions: 1% peptone, 2 × 10^6 CFU/mL, 16 h, 37 °C
# Method: as §2, §3, §4
# [14] = test system: B. subtilis (KCTC 3068); conditions: 1% peptone, 2 × 10^6 CFU/mL, 16 h, 37 °C
# Method: as §2, §3, §4
# [15] = test system: S. aureus (KCTC 1621); conditions: 1% peptone, 2 × 10^6 CFU/mL, 16 h, 37 °C
# Method: as §2, §3, §4
# [16] = test system: E. coli (KCTC 1682); conditions: 1% peptone, 2 × 10^6 CFU/mL, 16 h, 37 °C
# Method: as §2, §3, §4
Molecule,toxicity against hRBCs (in words) ([1]; hRBCs),"Minimal inhibitory concentration (MIC), S. epidermidis [2]","Minimal inhibitory concentration (MIC), MRSA 3126 [3]","Minimal inhibitory concentration (MIC), MDRAB 12035 [4]","Minimal inhibitory concentration (MIC), MDRPA 2002 [5]","Minimal inhibitory concentration (MIC), A. baumannii [6]","Minimal inhibitory concentration (MIC), MDRST 8007 [7]","Minimal inhibitory concentration (MIC), MDREC 1229 [8]",cytotoxicity against mammalian cells (in words) [9],"GM, geometric mean of MICs, Gram-positive bacteria [10]","GM, geometric mean of MICs, Gram-negative bacteria [11]","HC10, peptide concentration resulting in 10% hemolysis of fresh human erythrocytes [1]","Minimal inhibitory concentration (MIC), P. aeruginosa [12]","Minimal inhibitory concentration (MIC), S. typhimurium [13]","Minimal inhibitory concentration (MIC), B. subtilis [14]","Minimal inhibitory concentration (MIC), S. aureus [15]","Minimal inhibitory concentration (MIC), E. coli [16]"
"CC[C@H](C)[C@H](NC(=O)CN)C(=O)NCC(=O)N[C@@H](C)C(=O)N[C@H](C(=O)N[C@@H](CC(C)C)C(=O)N[C@@H](CCCCN)C(=O)N[C@H](C(=O)N[C@@H](CC(C)C)C(=O)N[C@H](C(=O)N[C@H](C(=O)NCC(=O)N[C@@H](CC(C)C)C(=O)N1CCC[C@H]1C(=O)N[C@@H](C)C(=O)N[C@@H](CC(C)C)C(=O)N[C@H](C(=O)N[C@@H](CO)C(=O)N[C@@H](Cc1c[nH]c2ccccc12)C(=O)N[C@H](C(=O)N[C@@H](CCCCN)C(=O)N[C@@H](CCCNC(=N)N)C(=O)N[C@@H](CCCCN)C(=O)N[C@@H](CCCNC(=N)N)C(=O)N[C@@H](CCC(N)=O)C(=O)N[C@@H](CCC(N)=O)C(N)=O)[C@@H](C)CC)[C@@H](C)CC)[C@@H](C)O)[C@@H](C)O)C(C)C)C(C)C [Melittin, reference compound]",highly toxic,4 µM,2 µM,4 µM,4 µM,8 µM,8 µM,8 µM,displayed cytotoxicity at very low concentrations,3 µM,6 µM,–,–,–,–,–,–
RWKIFKKAAKKA-NH2 [Pap12-4],–,32 µM,32 µM,16 µM,32 µM,32 µM,16 µM,32 µM,–,22 µM,22 µM,200 µM,8 µM,32 µM,16 µM,8 µM,8 µM
RWKIFKKAAKKG-NH2 [Pap12-2],–,32 µM,16 µM,16 µM,16 µM,32 µM,16 µM,32 µM,–,20 µM,18 µM,200 µM,8 µM,16 µM,16 µM,16 µM,8 µM
RWKIFKKIEKVG-NH2 [Pap12-1],–,64 µM,64 µM,16 µM,16 µM,64 µM,32 µM,64 µM,–,52 µM,35 µM,200 µM,8 µM,64 µM,64 µM,16 µM,16 µM
RWKIFKKVVKKA-NH2 [Pap12-5],–,16 µM,16 µM,8 µM,16 µM,8 µM,16 µM,16 µM,–,14 µM,14 µM,200 µM,8 µM,32 µM,16 µM,8 µM,8 µM
RWKIFKKVVKKG-NH2 [Pap12-3],–,16 µM,16 µM,16 µM,32 µM,16 µM,16 µM,16 µM,–,14 µM,16 µM,200 µM,8 µM,16 µM,16 µM,8 µM,8 µM
